Test results as given in PubChem BioAssay (NCI).
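Interpolation was linear, between the two tested concentrations surrounding the appropriate level; five concentrations were tested over 48 hours in 96-well plates. The concentration for 50% growth inhibition is given as GI50. TGI is the concentration that stops growth completely.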

Legend:
Assay in all cases: NCI anticancer screen, dose series, 48 h
MDA-MB-468 breast = system: MDA-MB-468 breast
UACC-257 melanoma = system: UACC-257 melanoma
SNB-75 CNS = system: SNB-75 CNS
M14 melanoma = system: M14 melanoma
T-47D breast = system: T-47D breast
MCF7 breast = system: MCF7 breast
OVCAR-4 ovarian = system: OVCAR-4 ovarian
MDA-MB-435 = system: MDA-MB-435
PC-3 prostate = system: PC-3 prostate
RPMI-8226 leukemia = system: RPMI-8226 leukemia
A498 renal = system: A498 renal
MALME-3M melanoma = system: MALME-3M melanoma
HS 578T breast = system: HS 578T breast
SK-MEL-28 melanoma = system: SK-MEL-28 melanoma
SF-268 CNS = system: SF-268 CNS
DU-145 prostate = system: DU-145 prostate
UO-31 renal = system: UO-31 renal
HL-60(TB) leukemia = system: HL-60(TB) leukemia
U251 CNS = system: U251 CNS
SN12C renal = system: SN12C renal
HOP-62 NSCLC = system: HOP-62 NSCLC
SK-MEL-5 melanoma = system: SK-MEL-5 melanoma
ACHN renal = system: ACHN renal
SF-295 CNS = system: SF-295 CNS
OVCAR-8 ovarian = system: OVCAR-8 ovarian
TK-10 renal = system: TK-10 renal
SNB-19 CNS = system: SNB-19 CNS
HT29 colon = system: HT29 colon
NCI-H226 lung = system: NCI-H226 lung
HOP-92 NSCLC = system: HOP-92 NSCLC
KM12 colon = system: KM12 colon
RXF 393 renal = system: RXF 393 renal
SF-539 CNS = system: SF-539 CNS
SK-OV-3 ovarian = system: SK-OV-3 ovarian
SW-620 colon = system: SW-620 colon
EKVX NSCLC = system: EKVX NSCLC
LOX IMVI melanoma = system: LOX IMVI melanoma
NCI-H522 lung = system: NCI-H522 lung
HCT-116 colon = system: HCT-116 colon
UACC-62 melanoma = system: UACC-62 melanoma
SR leukemia = system: SR leukemia
MOLT-4 leukemia = system: MOLT-4 leukemia
K-562 leukemia = system: K-562 leukemia
COLO 205 colon = system: COLO 205 colon
MDA-MB-231 breast = system: MDA-MB-231 breast
A549 NSCLC = system: A549 NSCLC
NCI-H460 lung = system: NCI-H460 lung
CCRF-CEM leukemia = system: CCRF-CEM leukemia
CAKI-1 renal = system: CAKI-1 renal
OVCAR-5 ovarian = system: OVCAR-5 ovarian
OVCAR-3 ovarian = system: OVCAR-3 ovarian
SK-MEL-2 melanoma = system: SK-MEL-2 melanoma
HCT-15 colon = system: HCT-15 colon
HCC-2998 colon = system: HCC-2998 colon
IGROV1 ovarian = system: IGROV1 ovarian
NCI-H23 lung = system: NCI-H23 lung
BT-549 breast = system: BT-549 breast
786-0 renal = system: 786-0 renal

`O=C(/C=C/c1ccco1)c1nc2ccccc2n1Cc1ccc(Br)cc1` was tested, and the GI50 (MDA-MB-468 breast) was 7.31 µM, the TGI (MDA-MB-468 breast) was 26.9 µM and the GI50 (UACC-257 melanoma) was 17.4 µM. The TGI (UACC-257 melanoma) was 68.4 µM, the GI50 (SNB-75 CNS) was 13 µM and the TGI (SNB-75 CNS) was greater than 100 µM. For the same compound, the GI50 (M14 melanoma) was 18.9 µM, the TGI (M14 melanoma) was 38.3 µM and the GI50 (T-47D breast) was 6.12 µM. For the same compound, the TGI (T-47D breast) was greater than 100 µM, the GI50 (MCF7 breast) was 2.9 µM and the TGI (MCF7 breast) was greater than 100 µM. It also gave a GI50 (OVCAR-4 ovarian) of 23.6 µM, a TGI (OVCAR-4 ovarian) greater than 100 µM and a GI50 (MDA-MB-435) of 15 µM. The TGI (MDA-MB-435) was 36.9 µM, the GI50 (PC-3 prostate) was 23.9 µM and the TGI (PC-3 prostate) was greater than 100 µM. The GI50 (RPMI-8226 leukemia) was 15.8 µM, the TGI (RPMI-8226 leukemia) was greater than 100 µM and the GI50 (A498 renal) was 28.7 µM. The TGI (A498 renal) was 65.3 µM, the GI50 (MALME-3M melanoma) was 16 µM and the TGI (MALME-3M melanoma) was 33.9 µM. The GI50 (HS 578T breast) was 30.4 µM, the TGI (HS 578T breast) was greater than 100 µM and the GI50 (SK-MEL-28 melanoma) was 15.6 µM. The TGI (SK-MEL-28 melanoma) was 32.1 µM, the GI50 (SF-268 CNS) was 27.2 µM and the TGI (SF-268 CNS) was greater than 100 µM. It also gave a GI50 (DU-145 prostate) of 21 µM, a TGI (DU-145 prostate) greater than 100 µM and a GI50 (UO-31 renal) of 11 µM. For the same compound, the TGI (UO-31 renal) was 26.4 µM, the GI50 (HL-60(TB) leukemia) was 12.7 µM and the TGI (HL-60(TB) leukemia) was greater than 100 µM. For the same compound, the GI50 (U251 CNS) was 12 µM, the TGI (U251 CNS) was 26.8 µM and the GI50 (SN12C renal) was 19.9 µM. The TGI (SN12C renal) was 52.5 µM, the GI50 (HOP-62 NSCLC) was 19.7 µM and the TGI (HOP-62 NSCLC) was 49.2 µM. The GI50 (SK-MEL-5 melanoma) was 14.1 µM, the TGI (SK-MEL-5 melanoma) was 28 µM and the GI50 (ACHN renal) was 22 µM. The TGI (ACHN renal) was 69.1 µM, the GI50 (SF-295 CNS) was 16.7 µM and the TGI (SF-295 CNS) was 42.1 µM. For the same compound, the GI50 (OVCAR-8 ovarian) was 16.6 µM, the TGI (OVCAR-8 ovarian) was 39.7 µM and the GI50 (TK-10 renal) was 32.8 µM. It also gave a TGI (TK-10 renal) greater than 100 µM, a GI50 (SNB-19 CNS) of 14.4 µM and a TGI (SNB-19 CNS) of 34.7 µM. It also gave a GI50 (HT29 colon) of 31.1 µM, a TGI (HT29 colon) greater than 100 µM and a GI50 (NCI-H226 lung) of 19.3 µM. For the same compound, the TGI (NCI-H226 lung) was 53 µM, the GI50 (HOP-92 NSCLC) was 5.77 µM and the TGI (HOP-92 NSCLC) was 33.5 µM. It also gave a GI50 (KM12 colon) of 12.5 µM, a TGI (KM12 colon) of 34.3 µM and a GI50 (RXF 393 renal) of 9.57 µM. For the same compound, the TGI (RXF 393 renal) was 22.1 µM, the GI50 (SF-539 CNS) was 17.8 µM and the TGI (SF-539 CNS) was 35 µM. It also gave a GI50 (SK-OV-3 ovarian) of 34.5 µM, a TGI (SK-OV-3 ovarian) greater than 100 µM and a GI50 (SW-620 colon) of 12.1 µM. The TGI (SW-620 colon) was 48.4 µM, the GI50 (EKVX NSCLC) was 26.2 µM and the TGI (EKVX NSCLC) was greater than 100 µM. The GI50 (LOX IMVI melanoma) was 12.2 µM, the TGI (LOX IMVI melanoma) was 27.3 µM and the GI50 (NCI-H522 lung) was 15.6 µM. It also gave a TGI (NCI-H522 lung) of 38.9 µM, a GI50 (HCT-116 colon) of 15 µM and a TGI (HCT-116 colon) of 61.7 µM. For the same compound, the GI50 (UACC-62 melanoma) was 10.8 µM, the TGI (UACC-62 melanoma) was 26.2 µM and the GI50 (SR leukemia) was 9.23 µM. It also gave a TGI (SR leukemia) greater than 100 µM, a GI50 (MOLT-4 leukemia) of 6.57 µM and a TGI (MOLT-4 leukemia) greater than 100 µM. The GI50 (K-562 leukemia) was 10.6 µM, the TGI (K-562 leukemia) was greater than 100 µM and the GI50 (COLO 205 colon) was 17.6 µM. The TGI (COLO 205 colon) was 34.1 µM, the GI50 (MDA-MB-231 breast) was 14 µM and the TGI (MDA-MB-231 breast) was 34.6 µM. It also gave a GI50 (A549 NSCLC) of 21.2 µM, a TGI (A549 NSCLC) greater than 100 µM and a GI50 (NCI-H460 lung) of 15.2 µM. The TGI (NCI-H460 lung) was 38.1 µM, the GI50 (CCRF-CEM leukemia) was 12.3 µM and the TGI (CCRF-CEM leukemia) was greater than 100 µM. It also gave a GI50 (CAKI-1 renal) of 14 µM, a TGI (CAKI-1 renal) greater than 100 µM and a GI50 (OVCAR-5 ovarian) of 17.9 µM. The TGI (OVCAR-5 ovarian) was 38.1 µM, the GI50 (OVCAR-3 ovarian) was 8.02 µM and the TGI (OVCAR-3 ovarian) was 30.4 µM. For the same compound, the GI50 (SK-MEL-2 melanoma) was 16.3 µM, the TGI (SK-MEL-2 melanoma) was 35.7 µM and the GI50 (HCT-15 colon) was 6.96 µM. It also gave a TGI (HCT-15 colon) of 23.2 µM, a GI50 (HCC-2998 colon) of 14.9 µM and a TGI (HCC-2998 colon) of 28.8 µM. It also gave a GI50 (IGROV1 ovarian) of 15.6 µM, a TGI (IGROV1 ovarian) of 63.7 µM and a GI50 (NCI-H23 lung) of 13.7 µM. For the same compound, the TGI (NCI-H23 lung) was 42.3 µM, the GI50 (BT-549 breast) was 13.8 µM and the TGI (BT-549 breast) was 35.7 µM. For the same compound, the GI50 (786-0 renal) was 21.3 µM and the TGI (786-0 renal) was 76.4 µM.
